This is an account of results in ChEMBL document CHEMBL1201862, “PubChem BioAssay data set” (2004).

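In this assay, cells in 96-well plates receive the compound at five concentrations for 48 hours. Endpoints are linearly interpolated between the surrounding concentrations. The concentration for 50% growth inhibition is given as GI50.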 Active and inactive are the calls of the source. Rule as the data show it: active = GI50 up to about 1.1 µM and inactive = higher.

Some test systems named below: A549; MCF7; HOP-62; HT-29; NCI-H522; NCI-H23; RPMI-8226; COLO 205; M14; ACHN; Hs-578T; OVCAR-8; LOX IMVI; UACC-257; UACC-62; SK-MEL-28; SNB-75; HOP-92; MDA-N.
Holding throughout (assay): growth of human tumour cells (NCI), 48 h

With `Cc1ccc(S(=O)(=O)N2CCN(S(=O)(=O)c3ccc(C)cc3)Cc3ccccc3C2)cc1`, the GI50 in the experiment on A549 is 80.5 µM (inactive); in the experiment on MCF7, 50.5 µM (inactive); in the experiment with HOP-62 it was 20.5 µM (inactive); with HT-29, > 100 µM (inactive); in the experiment with NCI-H522 it was 21.6 µM (inactive); in the experiment with NCI-H23, 57.5 µM (inactive). Also, the GI50 was > 100 µM (inactive) in the experiment on RPMI-8226; > 100 µM (inactive) in the experiment with COLO 205; 33 µM (inactive) in the experiment on M14; 36.9 µM (inactive) in the experiment on ACHN; 24.5 µM (inactive) in the experiment on Hs-578T; 82.6 µM (inactive) with OVCAR-8. Further, the GI50 was > 100 µM (inactive) in the experiment with LOX IMVI, 49.8 µM (inactive) with UACC-257, 10.1 µM (inactive) with UACC-62 and > 100 µM (inactive) with SK-MEL-28.

With `O=C(/C=C/c1ccc2c(c1)OCO2)c1ccccc(=O)c1O`, the GI50 was 20.9 µM (inactive) in the experiment on HOP-62; 9.51 µM (inactive) in the experiment on HT-29; 9.62 µM (inactive) in the experiment with NCI-H522; 12.3 µM (inactive) in the experiment on SNB-75; 7.14 µM (inactive) in the experiment with RPMI-8226; 4.94 µM (inactive) with COLO 205. Also, the GI50 was 13.7 µM (inactive) with HOP-92; 8.24 µM (inactive) in the experiment on ACHN; 16.4 µM (inactive) in the experiment with MDA-N; 7.8 µM (inactive) in the experiment on Hs-578T; 4.3 µM (inactive) with OVCAR-8; 19.9 µM (inactive) in the experiment on LOX IMVI. Besides, the results for the GI50 with UACC-257, in the experiment with UACC-62 and with SK-MEL-28 were 17.9 µM (inactive), 7.73 µM (inactive) and 21.2 µM (inactive), respectively.

Regarding `O=C(NNC(=S)Nc1ccccc1)c1csc(NC(=S)NC2CCCCC2)n1`, the GI50 in the experiment on A549 is > 100 µM (inactive); in the experiment with MCF7 it was 64.9 µM (inactive); in the experiment with HOP-62, > 100 µM (inactive); in the experiment with HT-29, 15.6 µM (inactive); in the experiment on NCI-H522, 79.3 µM (inactive); in the experiment with NCI-H23, > 100 µM (inactive). Besides, the GI50 with SNB-75 was 47.1 µM (inactive); with RPMI-8226, 28.8 µM (inactive); in the experiment with COLO 205, 40.1 µM (inactive); in the experiment with M14 it was 69.8 µM (inactive); with HOP-92, 94 µM (inactive); with ACHN, > 100 µM (inactive). The GI50 with MDA-N was 50.8 µM (inactive); in the experiment on OVCAR-8, 56.5 µM (inactive); with LOX IMVI it was 26.6 µM (inactive); in the experiment with UACC-257, 29 µM (inactive); with UACC-62, 38.9 µM (inactive).

On to `CCN(CC)C(=S)SS(=O)(=O)c1ccc(F)cc1`, for which the GI50 with HOP-62 is 40.6 µM (inactive); with HT-29 it was 22 µM (inactive); with NCI-H522, 0.0552 µM (active); in the experiment on NCI-H23, 76.4 µM (inactive); in the experiment on RPMI-8226 it was 17.7 µM (inactive); in the experiment with COLO 205, > 100 µM (inactive). For the same compound, the GI50 was 29.1 µM (inactive) in the experiment on M14; 31.2 µM (inactive) in the experiment with HOP-92; 43.1 µM (inactive) in the experiment on ACHN; 63.2 µM (inactive) with MDA-N; 63 µM (inactive) in the experiment on Hs-578T; 32.1 µM (inactive) in the experiment on OVCAR-8. The GI50 is 19.6 µM (inactive) in the experiment with LOX IMVI, 28.4 µM (inactive) in the experiment with UACC-257, 19.9 µM (inactive) in the experiment on UACC-62 and 14 µM (inactive) with SK-MEL-28.

Take `NC(=O)c1nc(-c2ccc(Cl)c(Cl)c2)nc2ccccc12`: the GI50 in the experiment on A549 is > 21.4 µM (inactive); in the experiment on HOP-62 it was > 21.9 µM (inactive); in the experiment on HT-29 it was > 100 µM (inactive); in the experiment on NCI-H522, > 100 µM (inactive); with NCI-H23, 39.7 µM (inactive); in the experiment on SNB-75, 2.68 µM (inactive). Further, the GI50 is > 21.1 µM (inactive) with RPMI-8226; > 100 µM (inactive) in the experiment on COLO 205; > 100 µM (inactive) with M14; 1.56 µM (inactive) in the experiment with HOP-92; > 20.8 µM (inactive) with ACHN; > 100 µM (inactive) with LOX IMVI. The results for the GI50 in the experiment with UACC-257 and with UACC-62 were > 29.1 µM (inactive) and > 24.9 µM (inactive), respectively.

With `CCC/C(Cl)=N\OC(=O)Nc1ccc(F)c([N+](=O)[O-])c1`, the GI50 in the experiment with A549 was 24.7 µM (inactive); in the experiment with MCF7 it was 25.5 µM (inactive); in the experiment on HOP-62, 18.4 µM (inactive); with HT-29, 20.1 µM (inactive); with NCI-H522, 1.79 µM (inactive); in the experiment on NCI-H23, 12.9 µM (inactive). For the same compound, the GI50 is 17.6 µM (inactive) in the experiment on SNB-75; 9.51 µM (inactive) in the experiment on RPMI-8226; 3.54 µM (inactive) in the experiment on COLO 205; 14.7 µM (inactive) in the experiment on M14; 15 µM (inactive) in the experiment on HOP-92; 4.97 µM (inactive) with ACHN. Also, the GI50 was 21.1 µM (inactive) in the experiment with MDA-N; 17.5 µM (inactive) with OVCAR-8; 21.9 µM (inactive) in the experiment with LOX IMVI; 17.3 µM (inactive) in the experiment with UACC-257; 18.7 µM (inactive) in the experiment with UACC-62; 18 µM (inactive) in the experiment with SK-MEL-28.

Regarding `CCNC(=S)N/N=C/c1cc([N+](=O)[O-])ccc1O`, the GI50 in the experiment on A549 was 33.4 µM (inactive); in the experiment with MCF7 it was 0.307 µM (active); in the experiment with HOP-62, 32.7 µM (inactive); in the experiment on HT-29, 41.8 µM (inactive); with NCI-H522 it was 21.5 µM (inactive); in the experiment on NCI-H23 it was 41.6 µM (inactive). Besides, the GI50 in the experiment on SNB-75 is 52 µM (inactive); with COLO 205, 28.3 µM (inactive); in the experiment with M14, 33.7 µM (inactive); in the experiment with ACHN, 25.8 µM (inactive); with MDA-N, 46.5 µM (inactive); in the experiment on Hs-578T it was 70.5 µM (inactive). The GI50 is 18 µM (inactive) with OVCAR-8; 15.7 µM (inactive) in the experiment on LOX IMVI; 24.6 µM (inactive) with UACC-257; 17.5 µM (inactive) with UACC-62; 51.8 µM (inactive) with SK-MEL-28.

For the compound `CCCCOC(=O)NC(Nc1ccc(S(=O)(=O)Nc2ncccn2)cc1)(C(F)(F)F)C(F)(F)F`, the GI50 is > 100 µM (inactive) in the experiment on A549; > 100 µM (inactive) in the experiment on HOP-62; > 100 µM (inactive) in the experiment on HT-29; > 100 µM (inactive) in the experiment on NCI-H522; > 100 µM (inactive) with NCI-H23; 86.9 µM (inactive) in the experiment with RPMI-8226. The GI50 in the experiment on COLO 205, in the experiment on M14, in the experiment on HOP-92, in the experiment with ACHN, in the experiment with MDA-N and in the experiment on Hs-578T was > 100 µM (inactive) in each case. In addition, the GI50 with OVCAR-8, in the experiment on LOX IMVI, in the experiment with UACC-62 and with SK-MEL-28 was > 100 µM (inactive) each time.

For the compound `CC1CCC/C1=C(/I)C(=O)c1ccccc1` (stereo not drawn), the GI50 was 98.2 µM (inactive) with A549; > 100 µM (inactive) with HOP-62; 48 µM (inactive) in the experiment with HT-29; 41.7 µM (inactive) with NCI-H522; 74.5 µM (inactive) in the experiment on NCI-H23; 16.1 µM (inactive) with SNB-75. Besides, the GI50 in the experiment with RPMI-8226 is 55.3 µM (inactive); in the experiment with COLO 205 it was > 100 µM (inactive); in the experiment on M14, 59.3 µM (inactive); in the experiment on ACHN it was > 100 µM (inactive); in the experiment on MDA-N, 36.6 µM (inactive); in the experiment on Hs-578T it was > 100 µM (inactive). Moreover, the GI50 is > 100 µM (inactive) with OVCAR-8; 9.16 µM (inactive) with LOX IMVI; 89.9 µM (inactive) in the experiment on UACC-257; 86.7 µM (inactive) with UACC-62; > 100 µM (inactive) with SK-MEL-28.

`O=C1CCCc2c1c1c(n2Cc2ccccc2)-c2ccccc2C1=O`: the GI50 in the experiment on A549 was 23 µM (inactive); in the experiment on MCF7, 29 µM (inactive); in the experiment on HOP-62, 25.5 µM (inactive); in the experiment on HT-29 it was 31.1 µM (inactive); in the experiment with NCI-H522, 12.3 µM (inactive); in the experiment with NCI-H23 it was 14.9 µM (inactive). Besides, the GI50 with SNB-75 is 62.5 µM (inactive); in the experiment on RPMI-8226 it was 3.14 µM (inactive); in the experiment with COLO 205, 17.9 µM (inactive); in the experiment on M14 it was 21.3 µM (inactive); with HOP-92, 26.9 µM (inactive); with ACHN it was 16 µM (inactive). Besides, the GI50 in the experiment on Hs-578T was 28.7 µM (inactive); in the experiment on OVCAR-8, 16.4 µM (inactive); in the experiment with LOX IMVI it was 17.9 µM (inactive); in the experiment with UACC-257 it was 17.3 µM (inactive); with UACC-62, 17.9 µM (inactive); with SK-MEL-28, 33.3 µM (inactive).

`COc1cc2cc(C(=O)N3CC(CCl)c4c3cc(O)c3ccccc43)[nH]c2c(OC)c1OC` (stereo not drawn): the GI50 in the experiment with A549, with HOP-62, with HT-29, in the experiment on NCI-H522, in the experiment with NCI-H23 and in the experiment with SNB-75 was < 0.005 µM (active) throughout. For the same compound, the GI50 with RPMI-8226, in the experiment on COLO 205, in the experiment with M14, in the experiment on ACHN, in the experiment with Hs-578T and in the experiment with OVCAR-8 was < 0.005 µM (active) each time. In addition, the GI50 in the experiment with LOX IMVI, in the experiment on UACC-257, in the experiment with UACC-62 and in the experiment on SK-MEL-28 was < 0.005 µM (active) each time.

For the compound `CN1C(=O)C(O)CC1c1cccc(C(F)(F)F)c1` (stereo not drawn), the GI50 with A549, in the experiment with MCF7, in the experiment with HOP-62, in the experiment on HT-29, in the experiment with NCI-H522 and with NCI-H23 was > 100 µM (inactive) each time. The GI50 in the experiment on SNB-75, in the experiment with RPMI-8226, in the experiment with COLO 205, with M14, in the experiment on HOP-92 and with ACHN was > 100 µM (inactive) in each case. Also, the GI50 in the experiment with Hs-578T, with OVCAR-8, in the experiment on LOX IMVI, with UACC-257, in the experiment on UACC-62 and with SK-MEL-28 was > 100 µM (inactive) throughout.
